Measurements reported in patent US20220341943A1, “XBP1 ISOFORM MULTIPLEX ASSAY” (Randox Laboratories Ltd, priority 2019, published 2022).

What was measured:
Format in all cases: cell-based
[1] = system: XBP1 splicing, MDA-MB-231 cells; assay: XBP1 biochip quantification of XBP1s and XBP1u in MDA-MB-231 lysates; details: for XBP1u levels: Paclitaxel, MKC-8866 and/or 4μ8C treatment; for XBP1s quantified by XBP1 biochip: 4μ8C 32 μM (p=0.035) or MKC-8866 20 μM (p=0.033); for Paclitaxel induced increase in XBP1s under IRE1α RNase inhibition: Paclitaxel 10 nM 48 h plus inhibitor, p<0.01; for XBP1u protein levels during IRE1α inhibition: XBP1 biochip, p=0.71
Procedure: (§1) Biochip-based determination of XBP1s and XBP1u. XBP1s and XBP1u levels and raw signal were quantified using the Evidence Investigator analyser (EV3602, Randox Laboratories Ltd., UK). Signals from defined discrete test regions were detected using digital imaging technology. The biochips were provided in wells in a carrier in a 3×3 format (9 reaction wells per carrier). A carrier handling tray supplied with the system accommodated 6 carriers. The total assay protocol was performed according to manufacturer's instructions. Briefly, RIPA lysed samples were diluted to 100 μL in RIPA buffer followed by dilution to 200 μL in XBP1 assay buffer and mixed well with gentle pipetting. 200 μL of XBP1 assay diluent was then applied to the surface of the biochip followed by 200 μL diluted sample or 100 μL calibrator/control per well. Following a 60-minute incubation at 37° C., 370 RPM in a thermoshaker (Randox Laboratories Ltd., Crumlin, UK) liquid contents were removed with a sharp flick and washed in a 2× quick, 4×2 min wash steps. 300 μL of HRP conjugated pan-XBP1 detector was applied to each well and another 60 min incubation at 37° C., 370 RPM in a thermoshaker was performed. Following another wash as above 250 μL of a 1:1 ratio of EV841 luminol and peroxide was applied to the surface of each biochip in a carrier and incubated away from direct light for 2 min. Carriers were then submitted to the Evidence Investigator, light emitted from each DTR detected by the CCD camera and signal quantified by the instrument software. Final values in pg/mg were obtained by dividing reported value (in pg) by total protein loaded per well, as determined by bicinchoninic acid (BCA) assay. Calibration curves, inferred values and goodness of fit were independently confirmed using R package nplr (0.1-7, Frederic Commo, https://cran.r-project.org/web/packages/nplr/index.html).
(§2) Cell culture and treatments MCF10A (ATCC) cells were maintained in DMEM/F-12 (Sigma-Aldrich, St. Louis, USA) supplemented with 5% horse serum (Sigma-Aldrich, St. Louis, USA), 20 ng/mL epidermal growth factor (PeproTech, London, UK), 0.5 μg/mL Hydrocortisone (Sigma-Aldrich, St. Louis, USA), 100 ng/mL Cholera toxin (Sigma-Aldrich, St. Louis, USA), 10 μg/mL insulin (Sigma-Aldrich, St. Louis, USA), 50 U/mL^1 penicillin, and 50 μg/mL streptomycin (St. Sigma-Aldrich, St. Louis, USA). MCF7 cells (ECACC) were cultured in DMEM high glucose (Sigma-Aldrich, St. Louis, USA) supplemented with 10% FBS, 0.01 mg/mL Insulin (Sigma-Aldrich, St. Louis, USA), and 2 mM L-glutamine. MDA-MB-231 cells were cultured in DMEM high glucose (Sigma-Aldrich, St. Louis, USA) supplemented with 10% FBS, 50 U/mL^1 penicillin, 50 μg/mL streptomycin, and 2 mM L-glutamine. U937 and THP-1 (ATCC, Manassas, USA) cells were cultured in RPMI-1640 medium (Sigma-Aldrich, St. Louis, USA) supplemented with 10% foetal bovine serum (FBS) (Sigma-Aldrich, St. Louis, USA), 50 U/mL penicillin, 50 μgml^−1 streptomycin (Sigma-Aldrich, St. Louis, USA), and 2 mM L-glutamine (Sigma-Aldrich, St. Louis, USA). All cells were cultured at 37° C., 5% CO2 in a humidified incubator and adherent cells seeded at an appropriate density 24 h prior to treatment. U937 cells were seeded at 5×10^5 cells/mL and treated immediately while THP-1 cells were seeded at 1×10^6 cells/mL and treated after 2 hours.
(§3) Sample preparation Cells were washed once in ice cold phosphate buffered saline (PBS) and then lysed in either RIPA buffer (Sigma-Aldrich, St. Louis, USAUSA) with RocheSTOP protease inhibitors (Roche, Basel, Switzerland) for protein analysis or directly lysed in TriReagent (Sigma-Aldrich, St. Louis, USAUSA) as per manufactures instructions for RNA analysis.

[2] = system: XBP1 splicing, THP-1 cells; assay: XBP1 biochip and RT-PCR assessment of THP-1 cells after NLRP3 inflammasome activation; details: for XBP1 splicing upon inflammasome activation: LPS 1 μg/ml 4 h followed by nigericin 10 μM 45 min (used together)
Procedure: as §1
Cell culture and treatments MCF10A (ATCC) cells were maintained in DMEM/F-12 (Sigma-Aldrich, St. Louis, USA) supplemented with 5% horse serum (Sigma-Aldrich, St. Louis, USA), 20 ng/mL epidermal growth factor (PeproTech, London, UK), 0.5 μg/mL Hydrocortisone (Sigma-Aldrich, St. Louis, USA), 100 ng/mL Cholera toxin (Sigma-Aldrich, St. Louis, USA), 10 μg/mL insulin (Sigma-Aldrich, St. Louis, USA), 50 U/mL^1 penicillin, and 50 μg/mL streptomycin (St. Sigma-Aldrich, St. Louis, USA). MCF7 cells (ECACC) were cultured in DMEM high glucose (Sigma-Aldrich, St. Louis, USA) supplemented with 10% FBS, 0.01 mg/mL Insulin (Sigma-Aldrich, St. Louis, USA), and 2 mM L-glutamine. MDA-MB-231 cells were cultured in DMEM high glucose (Sigma-Aldrich, St. Louis, USA) supplemented with 10% FBS, 50 U/mL^1 penicillin, 50 μg/mL streptomycin, and 2 mM L-glutamine. […]

[3] = system: XBP1s, MDA-MB-231 cells; assay: Immunoblot of XBP1 isoforms in MDA-MB-231 cells; details: for XBP1s (immunoblot) under IRE1α RNase inhibition: 4μ8C 32 μM or MKC-8866 20 μM, 48 h; for XBP1s translation (immunoblot): Tg 48 h, Tm 1 μg/ml 16 h, BFA 0.5 μg/ml 16 h, DTT 4 mM 2 h
Procedure: as §2, §3
Immunoblotting Protein lysates were mixed with 5× Laemmli Buffer (0.3125 M Tris HCl (pH 6.8), 10% SDS, 50% glycerol, 25% 2-mercaptoethanol, 0.02% bromophenol blue) in a 1:4 ratio and boiled at 95° C. for 5 min. Samples were separated on an SDS polyacrylamide gel, transferred onto nitrocellulose membrane (GE Healthcare Life Sciences, Little Chalfont, UK) and blocked with 5% milk in Wash Buffer (Randox Laboratories Ltd., Crumlin, UK). Membranes were probed with commercial antibodies to spliced and unspliced XBP1 isoforms and Actin (Sigma-Aldrich, St. Louis, USA, 1:5000). Anti-rabbit (Jackson ImmunoResearch, Cambridge, UK) and anti-mouse (Jackson ImmunoResearch, Cambridge, UK; Sigma-Aldrich, St. Louis, USA) HRP-conjugated secondary antibodies were incubated for 45-60 min and the signal was visualized using western blotting luminol reagent (Thermofisher, Waltham, USA; Perkin-Elmer, Waltham, USA).

[4] = system: XBP1s, MCF7 cells; assay: Immunoblot of XBP1 isoforms in MCF7 cells; details: 4μ8C 32 μM or MKC-8866 20 μM, 48 h
Procedure: as §2, with “U937 cells were seeded at 5×10^5 cells/mL and treated immediately while THP-1 cells were seeded at 1×10^6 cells/mL and treated after 2 hours.” left out

[5] = system: XBP1 splicing, MCF7 cells; assay: XBP1 biochip quantification of XBP1s and XBP1u in MCF7 lysates; details: 48 h; for XBP1s quantified by XBP1 biochip: 4μ8C 32 μM (p=0.004) or MKC-8866 20 μM (p=0.008)
Procedure: as §1, with “https://cran.r-project.org/web/packages/nplr/index.html). […]” for “https://cran.r-project.org/web/packages/nplr/index.html).”

[6] = system: NLRP3 mediated IL-1β release, THP-1 cells; assay: Immunoblot of IL-1β in conditioned media of THP-1 cells; details: LPS and nigericin activated

## CC(=O)O[C@H]1C(=O)[C@@]2(C)[C@H]([C@H](OC(=O)c3ccccc3)[C@]3(O)C[C@H](OC(=O)[C@H](O)[C@@H](NC(=O)c4ccccc4)c4ccccc4)C(C)=C1C3(C)C)[C@]1(OC(C)=O)CO[C@@H]1C[C@@H]2O [Paclitaxel]
[1]; MDA-MB-231, Paclitaxel 10 nM, 48 h, from 66.9±16.2 without Paclitaxel, p=0.036
  XBP1s expression: 125.0 ± 14.1 µg/mg
[1]; MDA-MB-231, 48 h
  XBP1u levels: no significant change

## Lipopolysaccharide [LPS]
[2]
  XBP1 splicing upon inflammasome activation: increase

## Cc1cc(=O)oc2c(C=O)c(O)ccc12 [4μ8C]
[3]
  XBP1s (immunoblot) under IRE1α RNase inhibition: reduction
[4]
  XBP1s (immunoblot) under IRE1α RNase inhibition: reduction
[1]; MCF7 and MDA-MB-231, 4μ8C 32 μM versus MKC-8866 20 μM
  relative potency of inhibition of XBP1s (XBP1 biochip): more potent than MKC
[1]; MDA-MB-231, 48 h
  XBP1s quantified by XBP1 biochip: significant reductions
  XBP1u levels: no significant change
[1]; MDA-MB-231
  Paclitaxel induced increase in XBP1s under IRE1α RNase inhibition: completely ablated
  XBP1u protein levels during IRE1α inhibition: largely unchanged
[5]
  XBP1s quantified by XBP1 biochip: significant reductions
[5]; 4μ8C 32 μM, significant upregulation, p=0.019
  XBP1u protein expression level (average): 81.1 µg/mg

## C/C=C(/C)C(=O)O[C@H]1C(C)=C2[C@H]([C@@H]1OC(=O)CCCCCCC)[C@@](C)(OC(C)=O)C[C@H](OC(=O)CCC)[C@@]1(O)[C@H]2OC(=O)[C@@]1(C)O [Thapsigargin]
[3]
  XBP1s translation (immunoblot): upregulation

## C[C@H]1CCC/C=C/[C@@H]2C[C@H](O)C[C@H]2[C@H](O)/C=C/C(=O)O1 [Brefeldin A]
[3]
  XBP1s translation (immunoblot): upregulation

## Tunicamycin
[3]
  XBP1s translation (immunoblot): upregulation

## COc1cc2c(C)c(CC(=O)N3CCOCC3)c(=O)oc2c(C=O)c1O [MKC-8866]
[2]; LPS and nigericin activated, p=0.048
  XBP1s expression upon MKC-8866 mediated inhibition (XBP1 biochip): significant changes
[2]; mean=46.2 μg/mg over treatments, one-way ANOVA p=0.408
  XBP1u levels (XBP1 biochip): largely unchanged
[3]
  XBP1s (immunoblot) under IRE1α RNase inhibition: reduction
[4]
  XBP1s (immunoblot) under IRE1α RNase inhibition: reduction
[1]; MDA-MB-231, 48 h
  XBP1s quantified by XBP1 biochip: significant reductions
  XBP1u levels: no significant change
[1]; MDA-MB-231
  Paclitaxel induced increase in XBP1s under IRE1α RNase inhibition: completely ablated
  XBP1u protein levels during IRE1α inhibition: largely unchanged
[6]
  IL-1β release: ablates
[5]
  XBP1s quantified by XBP1 biochip: significant reductions

## O[C@H](CS)[C@H](O)CS (racemic) [Dithiothreitol]
[3]
  XBP1s translation (immunoblot): upregulation

## CO[C@@H]1C[C@@H](C[C@H]2CC[C@H](C)[C@H]([C@@H](C)C(=O)O)O2)O[C@]2(O[C@](C)([C@H]3CC[C@@](C)([C@@H]4O[C@@H]([C@H]5O[C@@](O)(CO)[C@H](C)C[C@@H]5C)C[C@@H]4C)O3)C[C@H]2C)[C@@H]1C [nigericin, Nigericin]
[2]
  XBP1 splicing upon inflammasome activation: increase
